{"source": "patent US9201173B2", "about": "“Polarizer protective film, polarizer, and liquid crystal display device” (FUJIFILM CORPORATION, priority 2010, dated 2015)", "test": "Acid dissociation constant by alkali titration", "format": "physicochemical", "conditions": "mixed solvent of tetrahydrofuran/water=6/4 by volume at 25° C.", "protocol": "For measurement of the acid dissociation constant in the invention, employed is the alkali titration method described in Experimental Chemistry Course, 2nd Ed., pp. 215-217 (published by Maruzen).\nThe organic acid A is Tokyo Chemical's 1-benzyl-5-phenylbarbituric acid, and its acid dissociation constant in a mixed solvent of tetrahydrofuran/water=6/4 by volume at 25° C. is 4.0."}
{"smiles": "O=C1NC(=O)N(Cc2ccccc2)C(=O)C1c1ccccc1", "note": "(stereo not shown) [organic acid A, 1-benzyl-5-phenylbarbituric acid]", "values": [{"measurement": "acid dissociation constant", "result": 4.0}]}
